This is an account of results in patent US11725000B2, “Apoptosis inhibitors” (National Institute of Biological Sciences, Beijing, priority 2017, dated 2023).

The first assay deals with U2OS_Bim cells. Kind of assay: Apoptosis inhibition assay (Bim-induced apoptosis, cell viability by ATP level). The assay is classed as cell-based. The following applies: U2OS_Bim cells; estimated based on preliminary results; numbering of Tables 4a/4b; read-out: EC50. The method, boiled down: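 Apoptosis was triggered by doxycycline (0.1 μg/mL) induction of Bim, one hour after compound addition to U2OS_Bim cells. Survival was measured after 24 h from cellular ATP (CellTiter-Glo), relative to DMSO, with zVAD at 20 μM as rescue control. Data are duplicate means, some estimated from preliminary results.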
Turning to `COc1ccc(Cn2cc(-c3cc(-n4cccn4)nc([S+](C)[O-])n3)ccc2=O)cc1OC` (centres unmarked) [Compound 220], the EC50 is less than 10000 nM. The same measure, in the same setting: next, `CCOc1cccc(Cn2cc(-c3cc(C(F)(F)F)nc([S+](C)[O-])n3)ccc2=O)c1` (centres unmarked) [Compound 268]: less than 10000 nM; `COc1ccn(Cn2cc(-c3cc(C(F)(F)F)nc([S+](C)[O-])n3)ccc2=O)c1` (centres unmarked) [Compound 261]: less than 10000 nM.

The same assay, now with this note: U2OS_Bim cells; means of duplicates; numbering of Tables 4a/4b; read-out: EC50.
`COc1ccc(Cn2cc(-c3nc(S(=O)(=O)CCC(OCc4ccccc4)c4ccccc4)nc4ccccc34)ccc2=O)cc1OC` (centres unmarked) [Compound 293, 5-(2-((3-(benzyloxy)-3-phenylpropyl)sulfonyl)quinazolin-4-yl)-1-(3,4-dimethoxybenzyl)pyridin-2 (1H)-one]: the EC50 lay within 1 to 1000 nM. `COc1ccc(-c2cc(C(F)(F)F)nc(S(C)(=O)=O)n2)cc1` [Compound 53, 4-(4-methoxyphenyl)-2-(methylsulfonyl)-6-(trifluoromethyl)pyrimidine]: the concentration for a half-maximal effect (EC50) was less than 100000 nM. On the same count and under the same terms, to `C#CCOc1cccc(-c2cc(C(F)(F)F)nc([S+](C)[O-])n2)c1` (centres unmarked) [Compound 72, 2-(methylsulfinyl)-4-(3-(prop-2-yn-1-yloxy)phenyl)-6-(trifluoromethyl) pyrimidine] belongs 1000 to 10000 nM; to `CS(=O)(=O)c1nc(-c2ccc(=O)n(Cc3cccc(O)c3)c2)cc(C(F)(F)F)n1` [Compound 108, 1-(3-hydroxybenzyl)-5-(2-(methylsulfonyl)-6-(trifluoromethyl)pyrimidin-4-yl)pyridin-2 (1H)-one], 1000 to 10000 nM. The same measure, in the same setting: next, `COc1ccc(Cn2cc(-c3cc(C(F)F)nc(S(=O)(=O)CCC(O)c4ccccc4)n3)ccc2=O)cc1F` (centres unmarked) [Compound 287, 5-(6-(difluoromethyl)-2-((3-hydroxy-3-phenylpropyl)sulfonyl)pyrimidin-4-yl)-1-(3-fluoro-4-methoxybenzyl)pyridin-2 (1H)-one]: 1 to 1000 nM; `COc1cc(Cn2cc(-c3cc(C)nc(S(=O)(=O)CCC(OCc4ccccc4F)c4ccccc4)n3)cc(F)c2=O)ccn1` (centres unmarked) [Compound 321, 3-fluoro-5-(2-(3-(2-fluorobenzyloxy)-3-phenylpropylsulfonyl)-6-methylpyrimidin-4-yl)-1-((2-methoxypyridin-4-yl)methyl)pyridin-2 (1H)-one]: 1 to 1000 nM. The same measure, in the same setting: to `Cc1cc(-c2cc(F)c(=O)n(Cc3ccc(Cl)c(Cl)c3)c2)nc(S(=O)(=O)CCC(OCc2ccc(F)cc2F)c2ccccc2)n1` (centres unmarked) [Compound 316, 1-(3,4-dichlorobenzyl)-5-(2-(3-(2,4-difluorobenzyloxy)-3-phenylpropylsulfonyl)-6-methylpyrimidin-4-yl)-3-fluoropyridin-2 (1H)-one] belongs 1000 to 10000 nM. Take `COc1ccc(Cn2cc(-c3cc(C(F)F)nc(S(C)(=O)=O)n3)cc(F)c2=O)cc1OC` [Compound 165, 5-(6-(difluoromethyl)-2-(methylsulfonyl)pyrimidin-4-yl)-1-(3,4-dimethoxybenzyl)-3-fluoropyridin-2 (1H)-one]: the EC50 lay in the range of 1 to 1000 nM. Consider `COc1ncccc1-c1cc(C(F)(F)F)nc([S+](C)[O-])n1` (centres unmarked) [Compound 79, 4-(2-Methoxypyridin-3-yl)-2-(methylsulfinyl)-6-(trifluoromethyl)pyrimidine], for which the EC50 was less than 100000 nM.

In the case of `C[S+]([O-])c1nc(-c2ccn(Cc3ccc(Cl)cc3)c2)cc(C(F)(F)F)n1` (centres unmarked) [Compound 96, 4-(1-(4-chlorobenzyl)-1H-pyrrol-3-yl)-2-(methylsulfinyl)-6-(trifluoromethyl)pyrimidine], the concentration giving a half-maximal response (EC50) is less than 100000 nM. The same measure, in the same setting: next, `COc1ccc(Cn2cc(-c3cc(-c4cccs4)nc(S(=O)(=O)CCC(OCc4ccccc4)c4ccccc4)n3)ccc2=O)cc1OC` (centres unmarked) [Compound 300, 5-(2-((3-(benzyloxy)-3-phenylpropyl)sulfonyl)-6-(thiophen-2-yl)pyrimidin-4-yl)-1-(3,4-dimethoxybenzyl)pyridin-2 (1H)-one]: 1 to 1000 nM.

What is called EC50 is the concentration giving half of the maximal effect.
